The results in this text go back to PubChem BioAssay AID256 (DTP/NCI, 2004).

The assay deals with CD2F1 mice, L1210 leukemia ip, survival T/C. Description: NCI In Vivo Anticancer Drug Screen. Data for tumor model L1210 Leukemia (intraperitoneal) in CD2F1 (CDF1) mice. The settings on record: higher = longer survival. The gist of the method: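 Ratio T/C, where T is the treated-group value and C the vehicle-dosed control value, from mice implanted with a transplantable tumor.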

Setting [1] is: endpoint: mean survival time, dose: 50.0 mg/kg/injection, schedule: Q01DX009 (ip), vehicle: saline with Tween-80.
The mark [2] stands for this setting: endpoint: mean survival time, dose: 100.0 mg/kg/injection, schedule: Q01DX009 (ip), vehicle: saline with Tween-80.
Setting [3] is: endpoint: mean survival time, dose: 200.0 mg/kg/injection, schedule: Q01DX009 (ip), vehicle: saline with Tween-80.
The mark [4] stands for this setting: endpoint: mean survival time, dose: 100.0 mg/kg/injection, schedule: Q04DX003 (ip), vehicle: saline with Tween-80.
The mark [5] stands for this setting: endpoint: mean survival time, dose: 200.0 mg/kg/injection, schedule: Q04DX003 (ip), vehicle: saline with Tween-80.
Setting [6] is: endpoint: mean survival time, dose: 400.0 mg/kg/injection, schedule: Q04DX003 (ip), vehicle: saline with Tween-80.
Where [7] appears, read: endpoint: mean survival time, dose: 25.0 mg/kg/injection, schedule: Q01DX009 (ip), vehicle: saline with Tween-80.
Setting [8] is: endpoint: mean survival time, dose: 100.0 mg/kg/injection, schedule: Q04DX002 (ip), vehicle: saline with Tween-80.
[9] abbreviates: endpoint: mean survival time, dose: 200.0 mg/kg/injection, schedule: Q04DX002 (ip), vehicle: saline with Tween-80.
Setting [10] is: endpoint: mean survival time, dose: 400.0 mg/kg/injection, schedule: Q04DX002 (ip), vehicle: saline with Tween-80.

Where “and” joins values, the source holds several entries; their conditions need not be identical. Equal entries are not always repeated. Inconclusive results and toxic doses are left out.

For `O=C1/C(=C/c2ccc(Cl)c(Cl)c2)CCC/C1=C\c1ccc(Cl)c(Cl)c1`, the T/C was 98 % of control (endpoint: mean survival time, dose: 100.0 mg/kg/injection, schedule: Q04DX003 (ip), vehicle: Klucel (hydroxypropylcellulose) (HPC)); 100 % of control (endpoint: mean survival time, dose: 200.0 mg/kg/injection, schedule: Q04DX003 (ip), vehicle: Klucel (hydroxypropylcellulose) (HPC)); 98 % of control (endpoint: mean survival time, dose: 400.0 mg/kg/injection, schedule: Q04DX003 (ip), vehicle: Klucel (hydroxypropylcellulose) (HPC)).
`COc1ccc2ccccc2c1-c1c(O)ccc2ccccc12`: the T/C reads like this: (endpoint: mean survival time, dose: 12.5 mg/kg/injection, schedule: Q01DX009 (ip), vehicle: other) 101 % of control; (endpoint: mean survival time, dose: 25.0 mg/kg/injection, schedule: Q01DX009 (ip), vehicle: other) 97 % of control; (endpoint: mean survival time, dose: 50.0 mg/kg/injection, schedule: Q01DX009 (ip), vehicle: other) 91 % of control.
`C=CCC#N`: the T/C (endpoint: mean survival time, dose: 100.0 mg/kg/injection, schedule: Q04DX003 (ip), vehicle: saline sonified) was 90 % of control.
On to `CCOC(=O)C(NCc1ccccc1)C(=O)OCC`, for which the T/C is 96 % of control (endpoint: mean survival time, dose: 12.5 mg/kg/injection, schedule: Q01DX009 (ip), vehicle: water); 98 % of control (endpoint: mean survival time, dose: 25.0 mg/kg/injection, schedule: Q01DX009 (ip), vehicle: water); 101 % of control (endpoint: mean survival time, dose: 50.0 mg/kg/injection, schedule: Q01DX009 (ip), vehicle: water); 93 % of control (endpoint: mean survival time, dose: 100.0 mg/kg/injection, schedule: Q01DX009 (ip), vehicle: water).
On to `O=C1C2=C(CCCC2)CN1c1ccccc1`, for which the T/C runs as follows: under setting [1], 98 % of control; under setting [2], 98 % of control; under setting [3], 107 % of control.
`c1ccc(-c2nnc(-c3ccccc3)nn2)cc1`: the T/C is 98 % of control under setting [2]; 98 % of control under setting [4]; 98 % of control under setting [3]; 101 % of control under setting [5]; 95 % of control (endpoint: mean survival time, dose: 400.0 mg/kg/injection, schedule: Q01DX009 (ip), vehicle: saline with Tween-80); 96 % of control under setting [6].
As for `[Cl][Pt+2][Cl].[NH-]Nc1nc2ccccc2s1.[NH-]Nc1nc2ccccc2s1`, the T/C runs as follows: (endpoint: mean survival time, dose: 5.0 mg/kg/injection, schedule: Q04DX003 (ip), vehicle: saline with Tween-80) 102 % of control; (endpoint: mean survival time, dose: 10.0 mg/kg/injection, schedule: Q04DX003 (ip), vehicle: saline with Tween-80) 98 % of control; (endpoint: mean survival time, dose: 20.0 mg/kg/injection, schedule: Q04DX003 (ip), vehicle: saline with Tween-80) 94 % of control; (endpoint: mean survival time, dose: 40.0 mg/kg/injection, schedule: Q04DX003 (ip), vehicle: saline with Tween-80) 98 % of control; (endpoint: mean survival time, dose: 80.0 mg/kg/injection, schedule: Q04DX003 (ip), vehicle: saline with Tween-80) 94 % of control.
On to `CCOC(=O)C(=C=C(C(=O)OCC)C(=O)OCC)C(=O)OCC`, for which the T/C runs as follows: (endpoint: mean survival time, dose: 25.0 mg/kg/injection, schedule: Q01DX005 (ip), vehicle: saline with Tween-80) 97 % of control; under setting [7], 95 % of control; (endpoint: mean survival time, dose: 25.0 mg/kg/injection, schedule: Q04DX002 (ip), vehicle: saline with Tween-80) 103 % of control; (endpoint: mean survival time, dose: 50.0 mg/kg/injection, schedule: Q01DX005 (ip), vehicle: saline with Tween-80) 92 % of control and 97 % of control; under setting [1], 98 % of control; (endpoint: mean survival time, dose: 50.0 mg/kg/injection, schedule: Q04DX002 (ip), vehicle: saline with Tween-80) 88 % of control and 106 % of control. For the same compound, the T/C is 94 % of control (endpoint: mean survival time, dose: 100.0 mg/kg/injection, schedule: Q01DX005 (ip), vehicle: saline with Tween-80); 95 % of control under setting [2]; 103 % of control and 106 % of control under setting [8]; 86 % of control and 94 % of control (endpoint: mean survival time, dose: 200.0 mg/kg/injection, schedule: Q01DX005 (ip), vehicle: saline with Tween-80); 91 % of control under setting [3]; 95 % of control and 98 % of control under setting [9]. Besides, the T/C under setting [10] was 98 % of control.
In the case of `NCCS/C=C(\Br)C(=O)OCc1ccc(Br)cc1`, the T/C is 96 % of control under setting [4] and 98 % of control under setting [5].
As for `O=S1CCS(=O)CC1` (stereo not drawn), the T/C by setting is: (endpoint: mean survival time, dose: 100.0 mg/kg/injection, schedule: Q01DX001 (ip), vehicle: saline) 96 % of control; (endpoint: mean survival time, dose: 200.0 mg/kg/injection, schedule: Q01DX001 (ip), vehicle: saline) 93 % of control; (endpoint: mean survival time, dose: 400.0 mg/kg/injection, schedule: Q01DX001 (ip), vehicle: saline) 98 % of control.
As to `NC(=S)N/N=C/c1ccc(OC(=O)COc2ccc(Cl)cc2)cn1`, the T/C was 173 % of control (endpoint: mean survival time, dose: 88.0 mg/kg/injection, schedule: Q01DX009 (ip), vehicle: saline with Tween-80); 103 % of control and 111 % of control under setting [8]; 109 % of control (endpoint: mean survival time, dose: 118.0 mg/kg/injection, schedule: Q01DX001 (ip), vehicle: saline with Tween-80); 150 % of control (endpoint: mean survival time, dose: 118.0 mg/kg/injection, schedule: Q04DX003 (ip), vehicle: saline with Tween-80); 214 % of control (endpoint: mean survival time, dose: 132.0 mg/kg/injection, schedule: Q01DX009 (ip), vehicle: saline with Tween-80); 118 % of control (endpoint: mean survival time, dose: 178.0 mg/kg/injection, schedule: Q01DX001 (ip), vehicle: saline with Tween-80). The T/C runs as follows: (endpoint: mean survival time, dose: 178.0 mg/kg/injection, schedule: Q04DX003 (ip), vehicle: saline with Tween-80) 166 % of control; under setting [9], 114 % of control; (endpoint: mean survival time, dose: 266.0 mg/kg/injection, schedule: Q01DX001 (ip), vehicle: saline with Tween-80) 123 % of control; (endpoint: mean survival time, dose: 266.0 mg/kg/injection, schedule: Q04DX003 (ip), vehicle: saline with Tween-80) 170 % of control; (endpoint: mean survival time, dose: 300.0 mg/kg/injection, schedule: Q01DX009 (ip), vehicle: saline with Tween-80) 93 % of control; under setting [6], 181 % of control. Besides, the T/C by setting is: (endpoint: mean survival time, dose: 600.0 mg/kg/injection, schedule: Q04DX003 (ip), vehicle: saline with Tween-80) 150 % of control; (endpoint: median survival time, dose: 25.0 mg/kg/injection, schedule: Q01DX009 (ip), vehicle: saline with Tween-80) 164 % of control; (endpoint: median survival time, dose: 50.0 mg/kg/injection, schedule: Q01DX009 (ip), vehicle: saline with Tween-80) 188 % of control; (endpoint: median survival time, dose: 50.0 mg/kg/injection, schedule: Q01DX009 (ip), vehicle: saline) 172 % of control; (endpoint: median survival time, dose: 88.0 mg/kg/injection, schedule: Q01DX009 (ip), vehicle: saline with Tween-80) 178 % of control; (endpoint: median survival time, dose: 100.0 mg/kg/injection, schedule: Q01DX009 (ip), vehicle: saline with Tween-80) 175 % of control and 180 % of control. In addition, the T/C was 209 % of control (endpoint: median survival time, dose: 100.0 mg/kg/injection, schedule: Q01DX009 (ip), vehicle: saline); 178 % of control (endpoint: median survival time, dose: 133.0 mg/kg/injection, schedule: Q01DX009 (ip), vehicle: saline with Tween-80); 182 % of control and 184 % of control and 213 % of control (endpoint: median survival time, dose: 200.0 mg/kg/injection, schedule: Q01DX009 (ip), vehicle: saline with Tween-80); 172 % of control (endpoint: median survival time, dose: 200.0 mg/kg/injection, schedule: Q01DX009 (ip), vehicle: saline); 102 % of control (endpoint: median survival time, dose: 300.0 mg/kg/injection, schedule: Q01DX009 (ip), vehicle: saline with Tween-80); 108 % of control (endpoint: median survival time, dose: 400.0 mg/kg/injection, schedule: Q01DX009 (ip), vehicle: saline with Tween-80). Further, for the setting “endpoint: median survival time, dose: 400.0 mg/kg/injection, schedule: Q01DX009 (ip), vehicle: saline”, the T/C is 97 % of control.
Turning to `CC(=O)Nc1ccc([N+](=O)[O-])cc1C`, the T/C by setting is: (endpoint: mean survival time, dose: 50.0 mg/kg/injection, schedule: Q04DX003 (ip), vehicle: saline with Tween-80) 101 % of control; under setting [4], 100 % of control; under setting [5], 103 % of control.
As for `S=c1nc[nH]c2ccccc12`, the T/C (endpoint: mean survival time, dose: 100.0 mg/kg/injection, schedule: Q01DX001 (ip), vehicle: saline with Tween-80) is 93 % of control; the T/C under setting [8] was 91 % of control and 105 % of control; the T/C under setting [4] is 95 % of control and 97 % of control; the T/C (endpoint: mean survival time, dose: 200.0 mg/kg/injection, schedule: Q01DX001 (ip), vehicle: saline with Tween-80) is 94 % of control; the T/C under setting [9] is 94 % of control and 102 % of control; the T/C under setting [5] is 86 % of control and 90 % of control. The T/C (endpoint: mean survival time, dose: 400.0 mg/kg/injection, schedule: Q01DX001 (ip), vehicle: saline with Tween-80) was 88 % of control; the T/C under setting [10] is 91 % of control and 98 % of control.
As for `COc1ccc(N=C2C=CC(=O)O2)cc1`, the T/C is 95 % of control under setting [7], 100 % of control under setting [1], 97 % of control under setting [2] and 101 % of control under setting [4].
